Test results taken from patent US20240108591A1, “OR2L13 AGONISTS TO TREAT CVD WITH DY[…] ACTIVATION” (The Cleveland Clinic Foundation, priority 2022, published 2024).

Legend:
healthy platelets [1] = assay: Platelet calcium transients (Fura-2 fluorescence); assay type: cell-based, human; conditions: 300 μM, n=5
From the text: (§1) FIG. 5. A conserved olfactory receptor signal transduction pathway in healthy platelets. A. Proposed platelet OR2L13 signal transduction. Levo-carvone (L-Carvone) binds to OR2L13 on platelets to generate cAMP through adenylyl cyclase activation, and cAMP changes the cytosolic concentration of calcium (Ca 2+) directly and chloride conductance (C1^−) while inhibiting platelet reactivity through known, well-described mechanisms involving protein kinase (PKA). […] C. […] Data are mean±SEM (n=4, MQAE fluorescence). *P=0.0134 (−) carvone vs control by student's t-test. D. Carvone stimulation (300 μM) of healthy platelets promotes local brief calcium transients 20-80% above baseline is sustained compared with thrombin which attenuates over time (n=5 human platelets, Fura-2 fluorescence). MQAE=-[ethoxycarbonylmethyl]-6-methoxy-quinoliniumbromide. Arrowhead=drug addition.
(§2) ORs and downstream anoctamin proteins are generally expressed in afferent olfactory neurons (23). ORs are GPCRs positively linked to AC to increase cAMP (24), triggering […] as a downstream calcium-sensitive chloride channel (25). If this signal transduction pathway is conserved in platelets, OR2L13 activation should generate cAMP in platelets coincident with changes in platelet Cl^−- and Ca^2+ flux (schematic, FIG. 5A). […]

[2] = Circulating platelet number in treated mice; assay type: in vivo, mouse; conditions: 100 mg/Kg/day i.p. for three days, FVB/tac mice
Method: To ascertain whether exogenous (−) carvone in mice impacted platelet reactivity and thrombosis in vivo, FVB/tac mice were administered (−) carvone at a dose of 100 mg/Kg/day for three days by i.p. injection. Platelets were then isolated from mice and thrombin-stimulated ex vivo. Thrombin-induced platelet degranulation ex vivo was inhibited in platelets from (−) carvone-treated mice (FIG. 7C). […] This effect is consistent with adequate absorption and distribution of (−) carvone to attenuate platelet activation and thrombosis in vivo.

human platelets = assay: cAMP generation in human platelets; assay type: cell-based; conditions: 300 μM, 5 minutes, n=7
From the text: as §1, §2

healthy platelets [3] = assay: Platelet chloride efflux (MQAE fluorescence); assay type: cell-based, human; conditions: 300 μM, n=4
From the text: as §1, §2

[4] = test system: platelets from healthy humans; assay: Light transmission aggregometry, ADP-induced platelet aggregation; assay type: cell-based, human; conditions: 30 minutes preincubation, ADP 0.1 μM
Method: FIG. 6. […] A. Platelets were isolated from healthy humans and preincubated with (−) carvone or (+) carvone (300 μM) for 30 minutes. Platelets were stimulated with ADP (0.1 μM) and light transmission aggregometry assessed platelet activation. Representative tracings for each agonist are shown. B. Carvone (300 μM) or forskolin (10 μM) incubation individually or together for 30 minutes followed by platelet stimulation with ADP (0.1 μM). Light transmission aggregometry assessed platelet activation. Representative aggregometry tracings are shown. V=vehicle, C=(−)carvone, F=forskolin. Differences between groups by one-way ANOVA followed by Bonferroni correction *P<0.0001, **P=0.0003, ***P<0.0001 vs. vehicle (n=3). C. […] D. Platelets isolated from healthy humans and preincubated with (−) carvone (0-500 μM) for 30 minutes then stimulated with ADP (0.1 μM). Light transmission aggregometry assessed platelet activation. Representative tracings for each agonist are shown. E. Summary data for each concentration of (−) carvone as mean±SEM by ANOVA in the presence of ADP stimulation (0.1 μM). The downward red arrow is ADP in the presence of vehicle to which all data points were compared. *P<0.05 vs. vehicle, n=3 in each group by ANOVA, followed by Bonferroni correction. The broken blue line indicates the log IC50 concentration of (−) carvone. […]

healthy platelets [5] = assay: Flow cone and plate exposure to S-flow or D-flow, surface p-selectin by FACS; assay type: cell-based, human; conditions: 300 μM, 30 minute pre-treatment, 60 mins flow
Method: (§3) FIG. 7. Biomechanical platelet activation is inhibited by OR2L13 agonists. A. In vitro exposure of healthy platelets to steady laminar flow (S-flow) or disturbed flow (D-flow) for 60 mins after 30 minute pre-treatment with vehicle or (−) Carvone (300 μM). Platelet activation quantified by surface p-selectin expression as mean fluorescence intensity (MFI)±SEM, n=3 in each group by 2-way ANOVA. B. Calcein green-loaded healthy human blood flowing through a collagen-I coated microfluidics chamber at 40 dyn/cm^2 and imaged by confocal microscopy for adherent thrombus (green puncta) at three minutes. […] Differences between groups was assessed by the student's t-test, * P<0.0001 vs. vehicle. […]
(§4) Healthy human blood loaded with the fluorophore calcein green at room temperature (10 μM, pH 7.4 for 20 minutes), and incubated with odorant ligands for 30 minutes. […] D-flow shear cannot be accurately determined, though the same rotational speed was used with S-flow and D-flow always run alongside no flow (static) conditions for internal consistency. Following exposure to S-flow or D-flow, platelets were imaged by confocal microscopy, surface marker proteins were determined quantitatively by flow cytometry, and platelet proteins were assessed by Western blotting.
(§5) We next evaluated biomechanical platelet activation by S-flow and D-flow. […]

healthy human blood = assay: Thrombus formation in collagen-I coated microfluidics chamber at high shear; assay type: cell-based; conditions: 300 μM, 30 minutes, 40 dyn/cm^2, three minutes
Method: as §3, §4, §5

[6] = test system: platelets from FVB/tac mice; assay: Ex vivo thrombin-stimulated platelet activation after in vivo dosing; design: species or system mouse; conditions: 100 mg/Kg/day i.p. for three days
Method: (§6) FIG. 7. Biomechanical platelet activation is inhibited by OR2L13 agonists. A. In vitro exposure of healthy platelets to steady laminar flow (S-flow) or disturbed flow (D-flow) for 60 mins after 30 minute pre-treatment with vehicle or (−) Carvone (300 μM). Platelet activation quantified by surface p-selectin expression as mean fluorescence intensity (MFI)±SEM, n=3 in each group by 2-way ANOVA. B. Calcein green-loaded healthy human blood flowing through a collagen-I coated microfluidics chamber at 40 dyn/cm^2 and imaged by confocal microscopy for adherent thrombus (green puncta) at three minutes. Data are represented as mean thrombus area of random fields±SEM, n=6-7 in each group following 30 minutes of vehicle (0.25% DMSO) or (−) carvone treatment (300 μM). Differences between groups was assessed by the student's t-test, * P<0.0001 vs. vehicle. C. WT Fvb/tac mice were given 100 mg/Kg/day (−) carvone IP for 3 days. Platelets were isolated and stimulated in the presence of thrombin. […] D. Time to hemostasis in mice treated with (−) carvone following surgical amputation of tail tip in seconds±SEM, n=6-9 in each group, *P=0.0046 vs. vehicle by Mann Whitney U.
(§7) To ascertain whether exogenous (−) carvone in mice impacted platelet reactivity and thrombosis in vivo, FVB/tac mice were administered (−) carvone at a dose of 100 mg/Kg/day for three days by i.p. injection. […]

FVB/tac mice [7] = assay: Tail bleeding time (time to hemostasis after tail tip amputation); assay type: in vivo, mouse; conditions: 100 mg/Kg/day i.p. for three days
Method: as §6, §7

MMP2 [8] = assay: Aortic lysate MMP activity by zymography in AAA model; assay type: in vivo, mouse; conditions: daily 100 mg/Kg i.p., aortic lysate at week 4 following AAA
From the text: We previously reported that platelet matrix metalloproteinase (MMP) activity is increased in myocardial infarction (7, 27). Given that patients with AAA show less aortic growth and rupture when taking aspirin and growth and rupture are linked to MMP activity (10), we hypothesized that circulating platelets in patients with AAA may synthesize and secrete MMPs. Platelet MMP9 activity was enhanced and the MMP9 Tissue Inhibitor of MMP9 (TIMP1) was reduced in AAA compared to healthy conditions (FIG. 9A). Platelet MMP9 content was unchanged in healthy compared with AAA platelets. Aortic tissue as well as luminal thrombus from patients with infrarenal AAA compared to non-aneurysmal cadaveric aorta had increased expression and activity of MMP9.

MMP2 [9] = assay: Platelet lysate MMP2 activity by zymography in AAA model; conditions: isolated platelets from treated wild-type mice, week 4 following AAA
FVB/tac mice [10] = assay: Murine AAA model (topical elastase, BAPN, anti-TGFβ), aortic diameter by ultrasound
Method: To augment aneurysm growth and induce ILT as described (26), anti—TGFβ blocking antibody (250 μg/mouse) was injected i.p. three times weekly starting the day of surgery. Each mouse (20-30 g in weight) is given 1 mL subcutaneous physiologic saline before surgical incision to account for insensible volume losses with gut externalization. Surgical procedures were conducted on a surgical heating pad at 37 ° C. Mice were anesthetized with isoflurane anesthesia (3% by nosecone) using oxygen as the carrier. Buprenorphine (0.05 mg/Kg) is given 30 minutes prior to skin incision. The area of incision is cleaned with 70% ethanol and betadine three times, and then infiltrated gently with local anesthesia (bupivacaine 5 mg/Kg SQ immediately prior to incision). A midline abdominal incision is made through the skin. The rectus sheath was divided at the Linea Alba. The intestines are exteriorized with a Qtip to the left of mouse onto gauze soaked with saline above and below to prevent drying. Whatman paper 6 mm×9 mm slices were placed on top of aorta below the bifurcation of the renal arteries. […] Hyperalgesia was assessed immediately after the procedure, and then twice daily for 48 hrs, and maintenance dose buprenorphine (0.05 mg/Kg) was given 8 hrs post-surgery, and then maintained at this dose for 48 hrs post-surgery. […]

[11] = test system: clinical population with AAA; conditions: large clinical population (ref 10); cited from earlier work
patients with small AAA = conditions: randomized clinical trial (ref 14); cited from earlier work

C=C(C)[C@@H]1CC=C(C)C(=O)C1 (single isomer, unassigned) [(−) carvone]
local brief calcium transients above baseline (healthy platelets [1]): 20-80% | circulating platelet number [2]: without affecting the circulating platelet number

C=C(C)C1CC=C(C)C(=O)C1 (single isomer, unassigned; (-)) [(−) carvone]
cAMP generation in platelets (human platelets): generates cAMP | chloride efflux (healthy platelets [3]): promotes chloride efflux | ADP-induced platelet aggregation ([4]; 0-500 μM): blunted ADP-induced platelet aggregation dose-dependently | anti-platelet effect, (−) versus (+) enantiomer ([4]; 300 μM): more potent anti-platelet effect | S-flow / D-flow induced platelet activation (surface p-selectin) (healthy platelets [5]): attenuated only D-flow induced platelet activation | thrombosis in whole blood (thrombus area) (healthy human blood): attenuated | thrombin-induced platelet degranulation ex vivo [6]: inhibited | tail bleeding times (FVB/tac mice [7]): prolonged | MMP2 activity in the aorta (MMP2 [8]): decreased MMP2 activity in the aorta | platelet MMP2 activity compared to control mice (MMP2 [9]): decreased | AAA growth (aortic diameter by ultrasound) (FVB/tac mice [10]; 100 mg/Kg/day i.p. starting at day 7, fvb/tac mice): attenuated AAA growth

CC(=O)Oc1ccccc1C(=O)O [aspirin, reference compound]
AAA growth in patients [11]: limits AAA growth | AAA growth (aortic diameter by ultrasound) (FVB/tac mice [10]; 30 mg/L in drinking water starting at day 7, fvb/tac mice): attenuated AAA growth similarly to aspirin

CCCSc1nc(N[C@@H]2C[C@H]2c2ccc(F)c(F)c2)c2nnn([C@@H]3C[C@H](OCCO)[C@@H](O)[C@H]3O)c2n1 [ticagrelor]
AAA growth in patients (patients with small AAA): did not alter AAA growth
